Test results reported in PubChem BioAssay (NCI).
“And” between values parts separate entries of the source, which are not always exact repeats. Identical values can stand only once.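 Assay format: 96-well plates, 48-hour exposure. GI50: concentration for 50% inhibition of growth. TGI: concentration producing complete growth inhibition.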

Key:
Experiment in all cases: NCI tumour cell line growth inhibition, 48 h
786-0 renal = tested on: 786-0 renal
CAKI-1 renal = tested on: CAKI-1 renal
HCT-116 colon = tested on: HCT-116 colon
HS 578T breast = tested on: HS 578T breast
MDA-MB-435 = tested on: MDA-MB-435
MOLT-4 leukemia = tested on: MOLT-4 leukemia
OVCAR-4 ovarian = tested on: OVCAR-4 ovarian
PC-3 prostate = tested on: PC-3 prostate
T-47D breast = tested on: T-47D breast
UACC-62 melanoma = tested on: UACC-62 melanoma

Compound: O=C(Nc1ccccc1OC(=O)c1ccccc1)c1ccccc1
- GI50 (786-0 renal): 15600 nM
- TGI (786-0 renal): > 100 µM
- GI50 (CAKI-1 renal): 5840 nM
- TGI (CAKI-1 renal): 54.4 µM
- GI50 (HCT-116 colon): 3690 nM
- TGI (HCT-116 colon): > 100 µM
- GI50 (HS 578T breast): 4.72 µM
- TGI (HS 578T breast): > 100 µM
- GI50 (MDA-MB-435): 24500 nM
- TGI (MDA-MB-435): > 100 µM
- GI50 (MOLT-4 leukemia): 3.55 µM
- TGI (MOLT-4 leukemia): > 100 µM
- GI50 (OVCAR-4 ovarian): 18.7 µM
- TGI (OVCAR-4 ovarian): > 100 µM
- GI50 (PC-3 prostate): 6110 nM
- TGI (PC-3 prostate): > 100 µM
- GI50 (T-47D breast): 41900 nM
- TGI (T-47D breast): > 100 µM
- GI50 (UACC-62 melanoma): 64800 nM
- TGI (UACC-62 melanoma): > 100 µM

Compound: NNc1nnc(-c2nnc(NN)o2)o1
- TGI (786-0 renal): > 10 µM
- TGI (CAKI-1 renal): > 10 µM
- TGI (HCT-116 colon): > 10 µM
- TGI (HS 578T breast): > 10 µM
- TGI (MDA-MB-435): > 10 µM
- TGI (MOLT-4 leukemia): > 10 µM
- TGI (OVCAR-4 ovarian): > 10 µM
- TGI (PC-3 prostate): > 10 µM
- TGI (T-47D breast): > 10 µM
- TGI (UACC-62 melanoma): > 10 µM

Compound: Nc1nc(N)c(CCCCc2ccccc2)c(N)n1
- TGI (786-0 renal): > 100 µM
- TGI (CAKI-1 renal): > 100 µM
- TGI (HCT-116 colon): > 100 µM
- TGI (HS 578T breast): > 100 µM
- TGI (MDA-MB-435): > 100 µM
- TGI (MOLT-4 leukemia): > 100 µM
- TGI (OVCAR-4 ovarian): > 100 µM
- TGI (PC-3 prostate): > 100 µM
- TGI (T-47D breast): > 100 µM
- TGI (UACC-62 melanoma): > 100 µM

Compound: Oc1cc(-n2cccn2)c(O)cc1-n1cccn1
- TGI (786-0 renal): 31.3 µM
- TGI (CAKI-1 renal): 53.8 µM
- TGI (HCT-116 colon): > 64.1 µM
- TGI (HS 578T breast): > 100 µM
- TGI (MDA-MB-435): 31.8 µM
- TGI (MOLT-4 leukemia): 61.8 µM
- TGI (OVCAR-4 ovarian): 36.9 µM
- TGI (PC-3 prostate): 44.8 µM
- TGI (T-47D breast): 56.3 µM
- TGI (UACC-62 melanoma): 71.3 µM

Compound: COc1cccc(Oc2ccccc2NC(=O)CNC(=O)c2cccc3ccccc23)c1
- GI50 (786-0 renal): 183 nM
- TGI (786-0 renal): > 25 µM
- GI50 (CAKI-1 renal): 917 nM
- TGI (CAKI-1 renal): > 25 µM
- GI50 (HCT-116 colon): 96.2 nM
- TGI (HCT-116 colon): 3.77 µM
- GI50 (HS 578T breast): 0.381 µM
- TGI (HS 578T breast): > 25 µM
- GI50 (MDA-MB-435): 71.1 nM
- TGI (MDA-MB-435): 0.256 µM
- GI50 (MOLT-4 leukemia): 0.654 µM
- TGI (MOLT-4 leukemia): > 25 µM
- GI50 (OVCAR-4 ovarian): 0.77 µM
- TGI (OVCAR-4 ovarian): > 25 µM
- GI50 (PC-3 prostate): 284 nM
- TGI (PC-3 prostate): > 25 µM
- GI50 (T-47D breast): 138 nM
- TGI (T-47D breast): 17.6 µM
- GI50 (UACC-62 melanoma): 209 nM
- TGI (UACC-62 melanoma): > 25 µM

Compound: Fc1ccc(/C=N/n2c(-c3ccc(F)c(Cl)c3)n[nH]c2=S)cc1
- GI50 (786-0 renal): 19600 nM
- TGI (786-0 renal): 38.3 µM
- GI50 (CAKI-1 renal): 47800 nM
- TGI (CAKI-1 renal): > 100 µM
- GI50 (HCT-116 colon): 16300 nM
- TGI (HCT-116 colon): 29.9 µM
- GI50 (HS 578T breast): 28.8 µM
- TGI (HS 578T breast): 97.3 µM
- GI50 (MDA-MB-435): 57700 nM
- TGI (MDA-MB-435): > 100 µM
- GI50 (MOLT-4 leukemia): 25.4 µM
- TGI (MOLT-4 leukemia): 94.6 µM
- GI50 (OVCAR-4 ovarian): 19.9 µM
- TGI (OVCAR-4 ovarian): 39.9 µM
- GI50 (PC-3 prostate): 27300 nM
- TGI (PC-3 prostate): > 100 µM
- GI50 (T-47D breast): 20700 nM
- TGI (T-47D breast): 40.1 µM
- GI50 (UACC-62 melanoma): 22800 nM
- TGI (UACC-62 melanoma): 49 µM

Compound: COc1cc2c(cc1F)C(c1ccccc1Cl)=Nc1c(n[nH]c1C)N2
- GI50 (786-0 renal): 1820 nM
- TGI (786-0 renal): 19.3 µM
- GI50 (CAKI-1 renal): 609 nM
- TGI (CAKI-1 renal): 14.7 µM
- GI50 (HCT-116 colon): 639 nM
- TGI (HCT-116 colon): 18.4 µM
- GI50 (HS 578T breast): 0.214 µM
- TGI (HS 578T breast): 0.838 µM
- GI50 (MDA-MB-435): 172 nM
- TGI (MDA-MB-435): 19.1 µM
- GI50 (MOLT-4 leukemia): 5 µM
- TGI (MOLT-4 leukemia): 38.6 µM
- GI50 (OVCAR-4 ovarian): 5.63 µM
- TGI (OVCAR-4 ovarian): 28.6 µM
- GI50 (PC-3 prostate): 12300 nM
- TGI (PC-3 prostate): > 50.1 µM
- GI50 (T-47D breast): 1590 nM
- TGI (T-47D breast): 26.4 µM
- GI50 (UACC-62 melanoma): 995 nM
- TGI (UACC-62 melanoma): 17.2 µM

Compound: COc1cc(C(=O)Nc2cc(O)c(CC=C(C)C)c(O)c2)cc2c1O[C@]1(C)CC[C@@H](O)C(C)(C)[C@H]1C2
- GI50 (786-0 renal): 34.2 nM
- TGI (786-0 renal): 6.85 µM
- GI50 (CAKI-1 renal): 491 nM
- TGI (CAKI-1 renal): 63.1 µM
- GI50 (HCT-116 colon): 219 nM
- TGI (HCT-116 colon): 10.8 µM
- GI50 (HS 578T breast): 0.0471 µM
- TGI (HS 578T breast): 14 µM
- GI50 (MDA-MB-435): 703 nM
- TGI (MDA-MB-435): 41.4 µM
- GI50 (MOLT-4 leukemia): 0.0641 µM
- TGI (MOLT-4 leukemia): 1.38 µM
- GI50 (OVCAR-4 ovarian): 10.1 µM
- TGI (OVCAR-4 ovarian): > 100 µM
- GI50 (PC-3 prostate): 142 nM
- TGI (PC-3 prostate): 37.5 µM
- GI50 (T-47D breast): 1120 nM
- TGI (T-47D breast): 14.3 µM
- GI50 (UACC-62 melanoma): 187 nM
- TGI (UACC-62 melanoma): 1.57 µM

Compound: Oc1c(-c2cc(C(F)(F)F)[nH]n2)cc(Cl)c(OCc2ccc(Cl)cc2)c1-c1ccc(Cl)c(C(F)(F)F)c1
- GI50 (786-0 renal): 647 nM
- TGI (786-0 renal): 2.14 µM
- GI50 (CAKI-1 renal): 514 nM
- TGI (CAKI-1 renal): 2.92 µM
- GI50 (HCT-116 colon): 159 nM
- TGI (HCT-116 colon): 0.705 µM
- GI50 (HS 578T breast): 0.344 µM
- TGI (HS 578T breast): 2.85 µM
- GI50 (MDA-MB-435): 1060 nM
- TGI (MDA-MB-435): 4.11 µM
- GI50 (MOLT-4 leukemia): 0.903 µM
- TGI (MOLT-4 leukemia): 3.2 µM
- GI50 (OVCAR-4 ovarian): 1.31 µM
- TGI (OVCAR-4 ovarian): 7.41 µM
- GI50 (PC-3 prostate): 171 nM
- TGI (PC-3 prostate): 5.09 µM
- GI50 (T-47D breast): 147 nM
- TGI (T-47D breast): 1.53 µM
- GI50 (UACC-62 melanoma): 355 nM
- TGI (UACC-62 melanoma): 1.42 µM

Compound: c1cc(N2CCN(c3ccc(C4=NCCCN4)cc3)CC2)ccc1C1=NCCCN1
- GI50 (786-0 renal): > 100000 nM
- TGI (786-0 renal): > 100 µM
- GI50 (CAKI-1 renal): > 100000 nM
- TGI (CAKI-1 renal): > 100 µM
- GI50 (HCT-116 colon): 50200 nM
- TGI (HCT-116 colon): > 100 µM
- GI50 (HS 578T breast): > 58.7 µM
- TGI (HS 578T breast): > 100 µM
- TGI (MDA-MB-435): > 20.3 µM
- GI50 (MOLT-4 leukemia): 19.4 µM
- TGI (MOLT-4 leukemia): > 100 µM
- GI50 (OVCAR-4 ovarian): 71.8 µM
- TGI (OVCAR-4 ovarian): > 100 µM
- GI50 (PC-3 prostate): > 52700 nM
- TGI (PC-3 prostate): > 100 µM
- GI50 (T-47D breast): > 100000 nM
- TGI (T-47D breast): > 100 µM
- TGI (UACC-62 melanoma): > 35.3 µM

Compound: COc1cc2ncc3c(nc4sccn43)c2cc1OC
- GI50 (786-0 renal): 14600 nM
- TGI (786-0 renal): 40.2 µM
- GI50 (CAKI-1 renal): 2380 nM
- TGI (CAKI-1 renal): 21.2 µM
- GI50 (HCT-116 colon): 13700 nM
- TGI (HCT-116 colon): 78.2 µM
- GI50 (HS 578T breast): 22.1 µM
- TGI (HS 578T breast): > 100 µM
- GI50 (MDA-MB-435): 27200 nM
- TGI (MDA-MB-435): > 100 µM
- GI50 (MOLT-4 leukemia): 29.3 µM
- TGI (MOLT-4 leukemia): > 100 µM
- GI50 (OVCAR-4 ovarian): 32 µM
- TGI (OVCAR-4 ovarian): 70.4 µM
- GI50 (PC-3 prostate): 47900 nM
- TGI (PC-3 prostate): > 100 µM
- GI50 (T-47D breast): 29200 nM
- TGI (T-47D breast): > 100 µM
- GI50 (UACC-62 melanoma): 22900 nM
- TGI (UACC-62 melanoma): > 100 µM

Compound: O=C1c2c(Br)sc(Br)c2[C@@H](NC(=O)C(F)(F)F)C1Br (some centres not stated)
- TGI (786-0 renal): 5.13 µM
- TGI (CAKI-1 renal): 8.82 µM
- TGI (HCT-116 colon): 2.76 µM
- TGI (HS 578T breast): > 63.9 µM
- TGI (MDA-MB-435): 5.27 µM
- TGI (MOLT-4 leukemia): 5.32 µM
- TGI (OVCAR-4 ovarian): 5.33 µM
- TGI (PC-3 prostate): 15.1 µM
- TGI (T-47D breast): 14.7 µM
- TGI (UACC-62 melanoma): 14.6 µM

Compound: COc1ccc(/C=C(/C)[N+](=O)[O-])cc1OC
- GI50 (786-0 renal): 1890 nM and 1790 nM
- TGI (786-0 renal): 3.39 µM and 3.36 µM
- GI50 (CAKI-1 renal): 1880 nM and 338 nM
- TGI (CAKI-1 renal): 4.04 µM and 1.46 µM
- GI50 (HCT-116 colon): 1760 nM and 1560 nM
- TGI (HCT-116 colon): 3.37 µM and 2.98 µM
- GI50 (HS 578T breast): 6.2 µM and 5.55 µM
- TGI (HS 578T breast): > 100 µM
- GI50 (MDA-MB-435): 2170 nM and 2100 nM
- TGI (MDA-MB-435): 5.55 µM and 5.29 µM
- GI50 (MOLT-4 leukemia): 2.94 µM and 3.32 µM
- GI50 (OVCAR-4 ovarian): 1.91 µM and 2.27 µM
- TGI (OVCAR-4 ovarian): 3.88 µM and 4.77 µM
- GI50 (PC-3 prostate): 2650 nM and 2780 nM
- TGI (PC-3 prostate): 6.34 µM and 6.74 µM
- GI50 (T-47D breast): 1540 nM and 1370 nM
- TGI (T-47D breast): 3.29 µM and 3.23 µM
- GI50 (UACC-62 melanoma): 1780 nM and 1720 nM
- TGI (UACC-62 melanoma): 3.62 µM and 3.89 µM
